Test results: ChEMBL document CHEMBL4038320 (J Med Chem, 2017)

What was measured:
[1] = target: T1, Rhodopsin kinase GRK7 (Homo sapiens, UniProt Q8WTQ7); assay: Inhibition of recombinant human full length GST-tagged GRK7 expressed in baculovirus using ulight topo2alpha as substrate preincubated for 60 mins followed by substrate addition measured after 10 mins by Lance TR-FRET assay
T1 sequence (Q8WTQ7 whole entry): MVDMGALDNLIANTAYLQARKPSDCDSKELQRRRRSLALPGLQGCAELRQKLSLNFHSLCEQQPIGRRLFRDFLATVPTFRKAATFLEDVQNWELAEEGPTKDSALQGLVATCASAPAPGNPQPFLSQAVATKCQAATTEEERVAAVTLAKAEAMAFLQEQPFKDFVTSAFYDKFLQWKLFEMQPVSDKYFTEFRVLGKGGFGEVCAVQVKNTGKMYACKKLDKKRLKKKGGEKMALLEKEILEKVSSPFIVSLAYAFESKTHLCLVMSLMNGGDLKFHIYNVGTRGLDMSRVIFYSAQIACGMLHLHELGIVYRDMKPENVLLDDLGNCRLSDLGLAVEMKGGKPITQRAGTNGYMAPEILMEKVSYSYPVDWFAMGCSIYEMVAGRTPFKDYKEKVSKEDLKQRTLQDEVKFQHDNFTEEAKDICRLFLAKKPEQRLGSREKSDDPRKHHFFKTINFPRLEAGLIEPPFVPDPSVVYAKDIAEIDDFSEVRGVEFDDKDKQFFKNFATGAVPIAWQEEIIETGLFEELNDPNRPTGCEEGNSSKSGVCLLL

[2] = target: CYP3A4 (Homo sapiens, UniProt P08684); assay: Inhibition of CYP3A4 (unknown origin) at 10 uM; format: ADME
Sequence of CYP3A4 (P08684 whole entry, the tested form may be a part): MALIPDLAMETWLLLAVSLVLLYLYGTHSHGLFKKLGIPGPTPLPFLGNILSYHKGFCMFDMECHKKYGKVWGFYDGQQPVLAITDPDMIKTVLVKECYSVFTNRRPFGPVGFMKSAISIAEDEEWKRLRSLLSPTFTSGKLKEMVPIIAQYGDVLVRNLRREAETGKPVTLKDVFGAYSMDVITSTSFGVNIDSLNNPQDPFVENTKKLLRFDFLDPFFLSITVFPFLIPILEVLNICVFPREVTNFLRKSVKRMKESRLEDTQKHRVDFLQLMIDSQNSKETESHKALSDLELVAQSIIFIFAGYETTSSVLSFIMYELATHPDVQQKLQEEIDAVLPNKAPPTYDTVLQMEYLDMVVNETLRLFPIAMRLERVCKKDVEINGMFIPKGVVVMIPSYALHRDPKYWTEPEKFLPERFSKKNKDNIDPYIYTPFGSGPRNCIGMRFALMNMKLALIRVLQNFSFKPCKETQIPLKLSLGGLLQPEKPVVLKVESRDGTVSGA

[3] = target: Rho-associated protein kinase 2 (Homo sapiens, UniProt O75116); assay: Inhibition of recombinant human N-terminal GST-tagged ROCK2 catalytic domain (1 to 553 residues) expressed in baculovirus expression system using STK 2-biotin as substrate measured after 60 mins by HTRF/TR-FRET assay
Sequence of Rho-associated protein kinase 2 (O75116 whole entry, the tested form may be a part): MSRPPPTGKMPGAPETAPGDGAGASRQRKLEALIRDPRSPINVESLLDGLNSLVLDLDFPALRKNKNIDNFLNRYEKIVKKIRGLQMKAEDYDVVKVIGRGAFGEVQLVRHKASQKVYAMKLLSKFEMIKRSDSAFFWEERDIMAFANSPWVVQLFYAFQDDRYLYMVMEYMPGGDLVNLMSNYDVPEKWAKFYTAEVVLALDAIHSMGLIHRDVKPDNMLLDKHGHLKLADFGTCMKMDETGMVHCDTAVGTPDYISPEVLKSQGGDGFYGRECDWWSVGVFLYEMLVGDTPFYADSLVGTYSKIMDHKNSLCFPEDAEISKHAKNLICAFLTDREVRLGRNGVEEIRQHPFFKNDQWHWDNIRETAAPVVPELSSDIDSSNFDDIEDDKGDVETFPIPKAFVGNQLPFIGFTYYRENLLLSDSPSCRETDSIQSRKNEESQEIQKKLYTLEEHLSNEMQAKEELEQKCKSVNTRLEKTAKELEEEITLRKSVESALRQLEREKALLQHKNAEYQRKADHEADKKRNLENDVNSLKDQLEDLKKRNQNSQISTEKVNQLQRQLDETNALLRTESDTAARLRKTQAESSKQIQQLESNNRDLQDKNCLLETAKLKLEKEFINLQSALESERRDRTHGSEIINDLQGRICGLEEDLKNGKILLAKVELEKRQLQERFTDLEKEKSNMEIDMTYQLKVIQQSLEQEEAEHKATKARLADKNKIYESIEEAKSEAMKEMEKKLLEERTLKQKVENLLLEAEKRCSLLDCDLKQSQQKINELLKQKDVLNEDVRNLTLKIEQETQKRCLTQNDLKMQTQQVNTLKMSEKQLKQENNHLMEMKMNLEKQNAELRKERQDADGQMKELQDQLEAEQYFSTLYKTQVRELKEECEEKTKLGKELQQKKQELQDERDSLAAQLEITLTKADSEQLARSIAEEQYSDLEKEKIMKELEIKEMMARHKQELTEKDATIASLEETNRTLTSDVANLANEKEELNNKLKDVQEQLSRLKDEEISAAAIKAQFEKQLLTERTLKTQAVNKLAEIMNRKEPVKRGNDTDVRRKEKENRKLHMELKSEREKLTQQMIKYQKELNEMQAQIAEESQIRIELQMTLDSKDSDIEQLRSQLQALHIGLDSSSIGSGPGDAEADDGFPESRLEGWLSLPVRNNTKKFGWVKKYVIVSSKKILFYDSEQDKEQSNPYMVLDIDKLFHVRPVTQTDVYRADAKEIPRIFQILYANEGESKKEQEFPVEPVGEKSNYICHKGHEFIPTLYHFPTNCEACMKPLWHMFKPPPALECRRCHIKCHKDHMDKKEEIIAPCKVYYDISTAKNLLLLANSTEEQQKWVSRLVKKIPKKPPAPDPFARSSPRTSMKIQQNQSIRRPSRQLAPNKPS

[4] = target: T2, hERG (KCNH2) (Homo sapiens, UniProt Q12809); assay: Displacement of [3H]Astemizole from human ERG expressed in HEK293 cell membranes at 10 uM after 60 mins; conditions: membranes of HEK293 cells that express hERG, probe [3H]Astemizole
T2 sequence (Q12809 whole entry): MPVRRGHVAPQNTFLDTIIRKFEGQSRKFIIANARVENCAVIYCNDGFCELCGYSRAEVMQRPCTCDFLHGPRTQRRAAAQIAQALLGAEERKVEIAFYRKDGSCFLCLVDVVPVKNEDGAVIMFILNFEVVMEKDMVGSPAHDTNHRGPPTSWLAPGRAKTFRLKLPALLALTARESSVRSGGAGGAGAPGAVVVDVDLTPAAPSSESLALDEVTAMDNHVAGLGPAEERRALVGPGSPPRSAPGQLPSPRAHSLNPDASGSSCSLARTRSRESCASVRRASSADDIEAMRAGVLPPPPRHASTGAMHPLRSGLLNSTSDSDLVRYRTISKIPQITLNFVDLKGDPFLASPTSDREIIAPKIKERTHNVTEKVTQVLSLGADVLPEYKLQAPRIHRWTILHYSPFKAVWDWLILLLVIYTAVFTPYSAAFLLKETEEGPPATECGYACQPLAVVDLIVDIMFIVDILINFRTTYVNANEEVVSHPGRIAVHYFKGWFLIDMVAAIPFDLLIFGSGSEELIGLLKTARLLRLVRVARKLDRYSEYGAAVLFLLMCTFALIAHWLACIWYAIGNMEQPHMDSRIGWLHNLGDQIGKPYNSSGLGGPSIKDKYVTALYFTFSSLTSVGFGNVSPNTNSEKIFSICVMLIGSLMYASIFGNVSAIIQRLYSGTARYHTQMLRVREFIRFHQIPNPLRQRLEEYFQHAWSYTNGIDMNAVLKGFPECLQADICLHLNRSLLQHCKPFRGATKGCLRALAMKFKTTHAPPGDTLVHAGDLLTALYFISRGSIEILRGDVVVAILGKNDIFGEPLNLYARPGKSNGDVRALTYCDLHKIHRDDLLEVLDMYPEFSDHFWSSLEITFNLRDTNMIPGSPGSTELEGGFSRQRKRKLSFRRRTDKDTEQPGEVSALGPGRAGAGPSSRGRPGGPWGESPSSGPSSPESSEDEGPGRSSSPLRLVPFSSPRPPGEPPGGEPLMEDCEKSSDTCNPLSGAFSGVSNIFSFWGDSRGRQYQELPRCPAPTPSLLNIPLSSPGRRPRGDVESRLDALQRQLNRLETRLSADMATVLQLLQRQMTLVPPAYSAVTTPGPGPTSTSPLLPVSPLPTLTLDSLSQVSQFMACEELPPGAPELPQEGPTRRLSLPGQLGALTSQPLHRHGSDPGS

[5] = Inhibition of recombinant human PKA expressed in Escherichia coli using LRRASLG as substrate preincubated for 15 mins followed by substrate addition measured after 15 mins in presence of [gamma-33P]-ATP by scintillation counting
[6] = target: T2, hERG (KCNH2); assay: Displacement of [3H]Astemizole from human ERG expressed in HEK293 cell membranes at 1 uM after 60 mins; conditions: membranes of HEK293 cells that express hERG, probe [3H]Astemizole
[7] = target: T3, Rhodopsin kinase GRK1 (Homo sapiens, UniProt Q15835); assay: Inhibition of recombinant human GST-tagged GRK1 expressed in baculovirus infected fall armyworm Sf9 cells after 60 mins by LanthaScreen eu kinase binding assay
T3 sequence (Q15835 whole entry): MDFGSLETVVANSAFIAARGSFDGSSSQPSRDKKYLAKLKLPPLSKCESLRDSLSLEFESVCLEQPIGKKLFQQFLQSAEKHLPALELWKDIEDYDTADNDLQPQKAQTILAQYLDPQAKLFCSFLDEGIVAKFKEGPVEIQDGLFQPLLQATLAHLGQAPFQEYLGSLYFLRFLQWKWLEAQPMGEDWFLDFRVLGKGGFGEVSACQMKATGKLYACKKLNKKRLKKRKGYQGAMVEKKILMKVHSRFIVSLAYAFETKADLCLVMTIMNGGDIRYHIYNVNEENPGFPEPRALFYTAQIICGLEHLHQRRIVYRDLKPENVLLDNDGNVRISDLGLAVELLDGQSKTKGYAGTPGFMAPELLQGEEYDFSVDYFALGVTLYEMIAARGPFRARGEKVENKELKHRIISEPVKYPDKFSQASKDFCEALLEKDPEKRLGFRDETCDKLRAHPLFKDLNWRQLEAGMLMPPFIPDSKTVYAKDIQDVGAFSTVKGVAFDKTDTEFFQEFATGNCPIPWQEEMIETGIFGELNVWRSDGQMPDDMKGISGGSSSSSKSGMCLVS

[8] = target: G protein-coupled receptor kinase 5 (Homo sapiens, UniProt P34947)
Sequence of G protein-coupled receptor kinase 5 (P34947 whole entry): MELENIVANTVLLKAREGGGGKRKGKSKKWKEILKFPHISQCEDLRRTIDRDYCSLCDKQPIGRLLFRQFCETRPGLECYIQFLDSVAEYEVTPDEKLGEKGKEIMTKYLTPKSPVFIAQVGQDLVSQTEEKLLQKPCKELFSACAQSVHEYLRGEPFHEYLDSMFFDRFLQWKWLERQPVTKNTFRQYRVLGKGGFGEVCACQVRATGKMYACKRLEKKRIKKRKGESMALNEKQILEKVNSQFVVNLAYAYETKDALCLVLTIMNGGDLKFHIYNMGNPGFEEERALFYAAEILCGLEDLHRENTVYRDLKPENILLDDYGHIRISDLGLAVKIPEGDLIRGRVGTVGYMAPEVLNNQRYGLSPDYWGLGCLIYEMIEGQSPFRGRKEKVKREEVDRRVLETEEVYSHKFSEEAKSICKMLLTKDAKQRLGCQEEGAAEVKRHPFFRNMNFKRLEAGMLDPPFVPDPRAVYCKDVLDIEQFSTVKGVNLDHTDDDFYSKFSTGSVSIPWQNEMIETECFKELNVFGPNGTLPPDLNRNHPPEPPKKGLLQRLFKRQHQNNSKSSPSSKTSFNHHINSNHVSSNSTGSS
Description: Inhibition of recombinant human full length GST-tagged GRK5 expressed in baculovirus using ulight topo2alpha as substrate preincubated for 60 mins followed by substrate addition measured after 10 mins by Lance TR-FRET assay

[9] = target: T4, G protein-coupled receptor kinase 3 (Homo sapiens, UniProt P35626); assay: Inhibition of recombinant human full length GST-tagged GRK3 expressed in baculovirus using ulight topo2alpha as substrate preincubated for 60 mins followed by substrate addition measured after 10 mins by Lance TR-FRET assay
T4 sequence (P35626 whole entry): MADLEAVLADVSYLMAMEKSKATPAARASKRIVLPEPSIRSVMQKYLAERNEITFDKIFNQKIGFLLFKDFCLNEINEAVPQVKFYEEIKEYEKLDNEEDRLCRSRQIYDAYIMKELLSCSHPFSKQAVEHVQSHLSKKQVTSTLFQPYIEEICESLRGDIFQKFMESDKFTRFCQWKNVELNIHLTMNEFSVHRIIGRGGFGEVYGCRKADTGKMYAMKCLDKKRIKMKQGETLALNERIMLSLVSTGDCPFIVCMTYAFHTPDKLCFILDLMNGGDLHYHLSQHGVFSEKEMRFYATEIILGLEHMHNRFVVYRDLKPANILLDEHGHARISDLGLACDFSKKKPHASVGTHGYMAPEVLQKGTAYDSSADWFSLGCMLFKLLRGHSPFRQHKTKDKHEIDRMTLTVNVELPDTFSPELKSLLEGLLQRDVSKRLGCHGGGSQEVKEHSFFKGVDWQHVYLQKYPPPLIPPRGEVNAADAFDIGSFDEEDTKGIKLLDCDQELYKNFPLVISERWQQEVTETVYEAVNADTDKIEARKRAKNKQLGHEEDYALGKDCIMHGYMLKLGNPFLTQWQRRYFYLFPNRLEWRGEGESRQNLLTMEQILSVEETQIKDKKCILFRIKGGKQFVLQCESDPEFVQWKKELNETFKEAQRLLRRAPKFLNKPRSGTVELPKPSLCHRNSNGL

[10] = target: Protein kinase C alpha type (Homo sapiens, UniProt P17252); assay: Inhibition of human PKCalpha active using MBP as substrate after 60 mins in presence of [gamma-32]ATP by scintillation counting
[11] = target: G protein-coupled receptor kinase 6 (Homo sapiens, UniProt P43250); assay: Inhibition of recombinant human full length GST-tagged GRK6 expressed in baculovirus using ulight topo2alpha as substrate preincubated for 60 mins followed by substrate addition measured after 10 mins by Lance TR-FRET assay
Sequence of G protein-coupled receptor kinase 6 (P43250 whole entry): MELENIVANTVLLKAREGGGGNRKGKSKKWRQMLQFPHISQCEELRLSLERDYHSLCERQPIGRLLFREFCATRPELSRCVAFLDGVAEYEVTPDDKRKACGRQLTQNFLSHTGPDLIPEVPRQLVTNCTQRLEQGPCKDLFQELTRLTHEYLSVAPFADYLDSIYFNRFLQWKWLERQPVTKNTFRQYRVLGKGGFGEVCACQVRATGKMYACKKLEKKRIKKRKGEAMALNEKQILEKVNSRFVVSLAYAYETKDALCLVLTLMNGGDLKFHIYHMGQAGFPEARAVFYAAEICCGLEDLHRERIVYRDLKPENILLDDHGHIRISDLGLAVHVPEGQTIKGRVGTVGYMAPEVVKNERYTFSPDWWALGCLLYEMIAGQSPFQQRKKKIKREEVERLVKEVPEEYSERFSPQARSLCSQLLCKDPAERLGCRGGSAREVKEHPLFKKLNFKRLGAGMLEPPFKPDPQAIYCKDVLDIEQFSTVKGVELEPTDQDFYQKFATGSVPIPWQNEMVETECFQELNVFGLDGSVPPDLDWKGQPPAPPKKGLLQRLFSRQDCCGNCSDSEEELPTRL

[12] = target: T5, Beta-adrenergic receptor kinase 1 (Homo sapiens, UniProt P25098); assay: Inhibition of human GRK2 expressed in HEK-B2 cells assessed as isoproterenol-stimulated cAMP accumulation preincubation for 20 mins followed by isoproterenol stimulation measured after 20 mins by cAMP ALPHA-screen assay; format: cell-based
T5 sequence (P25098 whole entry): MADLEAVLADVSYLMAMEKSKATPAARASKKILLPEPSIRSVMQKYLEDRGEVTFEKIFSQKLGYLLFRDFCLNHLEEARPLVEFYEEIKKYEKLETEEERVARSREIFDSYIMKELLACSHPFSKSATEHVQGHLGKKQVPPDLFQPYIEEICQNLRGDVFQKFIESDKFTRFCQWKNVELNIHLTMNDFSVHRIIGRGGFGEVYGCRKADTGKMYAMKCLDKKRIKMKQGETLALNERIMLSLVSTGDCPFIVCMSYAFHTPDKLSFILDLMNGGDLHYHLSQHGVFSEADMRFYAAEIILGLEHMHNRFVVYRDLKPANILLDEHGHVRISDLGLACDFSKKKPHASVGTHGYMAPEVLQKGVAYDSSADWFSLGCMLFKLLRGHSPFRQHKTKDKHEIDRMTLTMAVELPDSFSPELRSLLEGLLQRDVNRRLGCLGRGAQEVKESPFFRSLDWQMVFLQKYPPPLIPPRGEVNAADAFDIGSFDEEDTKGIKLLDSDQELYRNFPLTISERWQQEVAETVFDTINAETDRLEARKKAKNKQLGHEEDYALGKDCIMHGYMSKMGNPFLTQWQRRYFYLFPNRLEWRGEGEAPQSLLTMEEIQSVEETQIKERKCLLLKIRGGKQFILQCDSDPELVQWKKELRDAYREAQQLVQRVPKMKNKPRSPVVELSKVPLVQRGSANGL

| SMILES | IC50 [1] | inhibition at 10 µM [2] | IC50 [3] | inhibition at 1 h, 10 µM [4] | IC50 [5] | inhibition at 1 h, 1 µM [6] | IC50 [7] | IC50 [8] | IC50 [9] | IC50 [10] | IC50 [11] | EC50 [12] |
| --- | --- | --- | --- | --- | --- | --- | --- | --- | --- | --- | --- | --- |
| Cn1c(CNc2cccc(C(=O)NCc3ccccc3C(F)(F)F)c2)nnc1-c1ccncc1 | 25 µM | 44% | 1.4 µM | 31% | > 1 µM | 9% | 3.1 µM | 2.3 µM | 0.0054 µM | 8.1 µM | > 30 µM | – |
| Cn1c(CNc2cccc(C(=O)NCc3ccc(C(F)(F)F)cc3)c2)nnc1-c1ccncc1 | – | 36% | 0.62 µM | – | – | – | – | – | – | > 10 µM | – | 930 µM |
| Cc1c(-c2ccncc2)n[nH]c1CNc1cccc(C(=O)NCc2ccccc2)c1 | 18 µM | 96% | 0.023 µM | – | – | – | > 30 µM | > 30 µM | 0.0043 µM | 4.8 µM | > 30 µM | – |
| CCCn1c(CNc2cccc(C(=O)NCc3ccccc3)c2)nnc1-c1ccncc1 | – | 67% | 0.11 µM | – | – | – | – | – | – | 5.7 µM | – | 26 µM |
| O=C(NCc1ccccc1C(F)(F)F)c1cccc(NCc2nnc3n2CCOc2cnccc2-3)c1 | 2.4 µM | 83% | 0.049 µM | – | – | – | 0.27 µM | 1.5 µM | 0.00065 µM | – | > 30 µM | – |
| O=C(NCc1ccccc1)c1cccc(NCc2nc(-c3ccncc3)n[nH]2)c1 | 8.8 µM | 91% | 0.024 µM | – | – | – | > 30 µM | 5.7 µM | 0.0018 µM | 6.3 µM | > 30 µM | – |
| CCn1c(CNc2cccc(C(=O)NCc3ccccc3)c2)nnc1-c1ccncc1 | > 30 µM | 50% | 0.076 µM | – | – | – | > 30 µM | – | 0.0033 µM | 2.9 µM | > 30 µM | – |
| Cn1c(CNc2cccc(C(=O)NCc3ccccc3)c2)nnc1-c1ccncc1 | – | 26% | 0.55 µM | – | – | – | – | – | – | > 10 µM | – | 1900 µM |
| Cn1c(CNc2cccc(C(=O)NCc3cccc(C(F)(F)F)c3)c2)nnc1-c1ccncc1 | – | 44% | 0.53 µM | – | – | – | – | – | – | > 10 µM | – | 220 µM |
| CNC(=O)c1cccc(NCc2nc(-c3ccncc3)n[nH]2)c1 | > 30 µM | 66% | 0.22 µM | – | – | – | > 30 µM | > 30 µM | 0.021 µM | > 10 µM | > 30 µM | – |
